Columns and labels:
Format in all cases: cell-based
SN12C = experiment: NCI 60-cell line protocol, SN12C (renal); details: Homo sapiens, 48 h, two days drug exposure, SRB endpoint, read-out: GI-50 value
Protocol: (§1) Samples containing exemplary compounds of formulas (Ia)-(Ig) were tested in the standard National Cancer Institute 60-cell line protocol. First, they were tested against all 60 cell lines in a single final concentration of 10 micromolar. Then, they were separately tested in five 10-fold dilutions. The drug exposure was two days, with an SRB endpoint.

786-0 = experiment: NCI 60-cell line protocol, 786-0 (renal); details: Homo sapiens, 48 h, two days drug exposure, SRB endpoint, read-out: GI-50 value
Protocol: as §1

RXF 393 = experiment: NCI 60-cell line protocol, RXF 393 (renal); details: Homo sapiens, 48 h, two days drug exposure, SRB endpoint, read-out: GI-50 value
Protocol: as §1

[1] = tested on: cancer cell lines within the NCI 60 cell assay; experiment: NCI 60 cell assay, cancer cell line panel; details: Homo sapiens, average over the nine cell lines of Table 1, read-out: Average GI-50
Protocol: as §1

BT-549 = experiment: NCI 60-cell line protocol, BT-549 (breast); details: Homo sapiens, 48 h, two days drug exposure, SRB endpoint, read-out: GI-50 value
Protocol: as §1

OVCAR-8 = experiment: NCI 60-cell line protocol, OVCAR-8 (ovarian); details: Homo sapiens, 48 h, two days drug exposure, SRB endpoint, read-out: GI-50 value
Protocol: as §1

UO-31 = experiment: NCI 60-cell line protocol, UO-31 (renal); details: Homo sapiens, 48 h, two days drug exposure, SRB endpoint, read-out: GI-50 value
Protocol: as §1

A498 = experiment: NCI 60-cell line protocol, A498 (renal); details: Homo sapiens, 48 h, two days drug exposure, SRB endpoint, read-out: GI-50 value
Protocol: as §1

HS 578T = experiment: NCI 60-cell line protocol, HS 578T (breast); details: Homo sapiens, 48 h, two days drug exposure, SRB endpoint, read-out: GI-50 value
Protocol: as §1

ACHN = experiment: NCI 60-cell line protocol, ACHN (renal); details: Homo sapiens, 48 h, two days drug exposure, SRB endpoint, read-out: GI-50 value
Protocol: as §1

Row | SMILES | GI50 (SN12C) [nM] | GI50 (786-0) [nM] | GI50 (RXF 393) [nM] | GI50 [1] [nM] | GI50 (BT-549) [nM] | GI50 (OVCAR-8) [nM] | GI50 (UO-31) [nM] | GI50 (A498) [nM] | GI50 (HS 578T) [nM] | GI50 (ACHN) [nM]
1 | C[C@@H]1CC[C@@H]2C1[C@H](OC(=O)/C=C/c1ccccc1)C1(C3CCCCC3)C[C@@H](NC(=O)CO)C2(C)O1 (stereo partly shown) [(Ia)] | 11500 | 14800 | 3310 | 8030 | 13200 | 16200 | 4790 | 2190 | 2820 | 3470
2 | C[C@@H]1CC[C@@H]2C1[C@H](OC(=O)/C=C/c1ccccc1)[C@]1(C3CCCCC3)C[C@@H](OC(=O)CO)[C@@]2(C)O1 (stereo partly shown) [(Ib)] | 85 | 1180 | 78 | 217 | 34 | 513 | 15 | 19 | 24 | 10
3 | C[C@@H]1CC[C@@H]2C1[C@H](OC(=O)/C=C/c1ccccc1)[C@]1(c3ccccc3)C[C@@H](OC(=O)CO)[C@@]2(C)O1 (stereo partly shown) [(Ic)] | 537 | 11700 | 251 | 2260 | 407 | 6760 | 155 | 191 | 112 | 178
4 | CC1CC[C@@H]2C1[C@H](OC(=O)/C=C/C1CCCCC1)[C@]1(C3CCCCC3)C[C@@H](OC(=O)CO)[C@@]2(C)O1 (stereo partly shown) [(Id)] | 32 | 12000 | 34 | 2550 | 55 | 10700 | 29 | 21 | 16 | 22
5 | C/C(=C\C(=O)O[C@H]1C2C(C)CC[C@H]2[C@]2(C)O[C@@]1(C1CCCCC1)C[C@H]2OC(=O)CO)c1ccccc1 (stereo partly shown) [(Ie)] | 23 | 5130 | 79 | 1080 | 120 | 4270 | 62 | 16 | 10 | 15
6 | CC1CC[C@@H]2C1[C@H](OC(=O)c1ccc3ccccc3c1)[C@]1(C3CCCCC3)C[C@@H](OC(=O)CO)[C@@]2(C)O1 (stereo partly shown) [(If)] | 52 | 5370 | 71 | 1250 | 71 | 5620 | 40 | 19 | 23 | 19
7 | Cc1c(C(=O)O[C@H]2C3C(C)CC[C@H]3[C@]3(C)O[C@@]2(C2CCCCC2)C[C@H]3OC(=O)CO)ccc2ccccc12 (stereo partly shown) [(Ig)] | 158 | 6460 | 166 | 2130 | 5250 | 6610 | 407 | 17 | 17 | 59

From patent US11098054B2, “Englerin derivatives for treatment of cancer” (The United States of America,as represented by the …, priority 2017, dated 2021)
